Experimental data: patent EP4631928A1, “METHOD OF PURIFICATION OF GLYCOLIC ACID, COMPOSITION AND USE THEREOF” (Metabolic Explorer, priority 2024, dated 2025)

Assays:
[1] = Tissue viability, MTT assay on 3D reconstructed human epidermis after topical application; type: cell-based; conditions: human, 24 hours, relative to untreated epidermis
Method: (§1) The assay takes place in two steps: • Step 1: EC50 concentration finding assay is performed with one representative sample. • Step 2: determination of EC50 concentration values and IL-1α levels performed with both GA.
(§2) Prior to GA application, tissue inserts are transferred in 12-well plates prefilled with fresh maintenance medium. 60 µl/cm^2 of each GA solution is applied on top of epidermidis. After application, tissues are incubated for 24 hours at 37°C (±1 °C) and 5% ([…]) CO2.
(§3) The tissue viability is measured with the MTT assay performed in 24 hours. The MTT assay is based on the reduction of 3-(4,5-Dimethylthiazol-2-yl)-2,5-Diphenyltetrazolium Bromide (MTT) into insoluble purple formazan crystals, by metabolically active cells in a mitochondria-dependant reaction catalysed by succinate dehydrogenase. The ability of cells to reduce MTT after exposure to GA, compared to the control (untreated epidermis), enables to deduce the relative toxicity of the applied GA. The optical density (OD) of formazan solution is proportional to the number of viable cells.
(§4) After incubation, tissues are rinsed with PBS and then transferred into 24-well plates pre-filled with MTT solution. After 120 minutes (±10 minutes) of incubation at 37°C (±1 °C), the tissues are transferred into 24-well plates containing DMSO for extraction of formazan. Then the plates are stored overnight at room temperature. At the end of the extraction period, 3 x 200 µl aliquots of formazan extracts are transferred into a 96-well flat bottom microtiter plate and the optical density is read at 570 nm in a microplate reader.
(§5) The optical densities of each replicate are corrected by substracting the mean OD value of blank measured in parallel. The mean from corrected OD values (ODcorr) as well as standard deviation are calculated in each experimental group.
(§6) From the mean ODcorr values, the relative tissue viability (% viab) is calculated as a percentage of the mean viability of the control (untreated epidermis): % viab (treated) = ((treated) ODcorr mean)/((Control ODcorr mean) × 100. [formula]
(§7) The graph represents the dose response curve of cells viability (% viab) versus the GA concentration (C). The EC50 value is calculated from the dose response curve, by using the probit-log regression model.

[2] = tested on: SKINETHIC™ RHE model; assay: as above; type: cell-based; conditions: for Tissue viability / EC50: 24 hours; for Tissue viability: relative to untreated epidermis; for EC50 value / EC50: concentration reducing viability to 50% of control tissues; for EC50: probit-log regression
Method: as §1, §2, §3, §4, §5, §6, §7

[3] = tested on: interleukin 1α (IL-1α); assay: Inflammatory response, IL-1α release assay (ELISA) on reconstructed human epidermis; type: cell-based; conditions: IL-1α level normalized to tissue viability, 24 hours
Description: The 3D reconstructed human epidermis (RhE) used as test system in the study, is the SKINETHIC™ RHE model commercially available from the company EPISKIN SA. The SKINETHIC™ RHE model is obtained by tissue engineering from untransformed human keratinocytes previously obtained from human epidermis. The model is described in the OECD 439 guideline for in vitro skin irritation of chemical products.
The assay is based on topical application of the tested GA at different concentrations on reconstructed human epidermis (RHE SkinEthic™), followed by evaluation of: • Tissue viability, by MTT colorimetric test to determine the concentration of test product needed to produce the viability to 50% of control tissues (EC50). • SkinEthic™ RHE tissue inflammatory response, by interleukin 1α (IL-1α) release assay.
as §2
At the end of the assay after 24 hours incubation period, the conditioned media underneath tissues are collected, aliquoted and stored at -20°C until IL-1α assay.
IL-1α is quantified using an Elisa kit (Quantikine Human IL-1α DLA50) according to the manufacturer's instructions. The optical densities are read at 450 nm.
IL-1α levels (pg/ml) are interpolated from the standard curve built with IL-1α standard provided with the Elisa kit. The mean of IL-1α release concentrations is calculated in each experimental group. For the comparative analysis, the IL-1α levels were normalized in function of tissue viability (MMT test). The values R (IL-1α/Viab%) ×100) have been calculated at different concentrations with the two GA and collected in the following Table 18: Table 18: IL-1α ratios.

[4] = tested on: skin; assay: Usage test, panel questionnaire on skin quality; type: in vivo, human; conditions: between the 7th and the 14th day
Description: A panel of 60 women with mature skin ranging from normal to dry, were selected to apply to each half of the face, the two tested items: GA-METEX and GA-CONTROL. The panelists were asked about their feeling after 7 and 14 days of daily application. The questionnaire covered items: nourished skin, uniform skin, smooth skin, luminous skin, finer skin texture, firm skin.

SMILES: O=C(O)CO [GA-METEX, Glycolic acid]
- viability at 24 h, 1.27 % ([1]; GA concentration 1.27%): 74.9%
- viability at 24 h, 3 % ([1]; GA concentration 3%): 3.5%
- Tissue viability ([2]; GA concentration 1.69%): 59,6%
- Tissue viability ([2]; GA concentration 2.25%): 22.2%
- EC50 value [2]: 1.70%
- EC50 [2]: 1.70 % p/v
- R (IL-1α/Viab%) ×100 ([3]; GA concentration 1.27%): 10.42
- R (IL-1α/Viab%) ×100 ([3]; GA concentration 1.69%): 18.26
- R (IL-1α/Viab%) ×100 ([3]; GA concentration 2.25%): 35.56
- user satisfaction, evolution [4]: significant increase in user satisfaction

SMILES: O=C(O)CO [GA-CONTROL, Glycolic acid]
- Tissue viability ([2]; GA concentration 1.27%): 62.1%
- Tissue viability ([2]; GA concentration 1.69%): 31.2%
- Tissue viability ([2]; GA concentration 2.25%): 10.5%
- Tissue viability ([2]; GA concentration 3%): 3.4%
- EC50 value [2]: 1.42%
- EC50 [2]: 1.42 % p/v
- R (IL-1α/Viab%) ×100 ([3]; GA concentration 1.27%): 15.09
- R (IL-1α/Viab%) ×100 ([3]; GA concentration 1.69%): 35.33
- R (IL-1α/Viab%) ×100 ([3]; GA concentration 2.25%): 75.07
